How the values were obtained:
SUDHL-4 cell line = experiment: Dose response of combinations (MTS viability, day 3); format: cell-based; details: SUDHL-4, combined with 0.5 μM 9-ING-41, day 3 MTS
Method: (§1) FIGS. 2A-2O show the viability of lymphoma cells with chemotherapy agents in combination with 9-ING-41. 10,000 cells (FIGS. 1A, F, K: Daudi; FIGS. 1B, G, L: SUDHL-4; FIGS. 1C, H, M: KPUM-UH1; FIGS. 1D, I, N: Karpas 422; E, J, O: TMD8) were plated per well of a 96-well plate and treated with a dose response series of both 9-ING-41 (0-0.5 μM) and Venetoclax (0-5,000 nM) (FIGS. 1A-E) or BAY-1143572 (0-50 μM) (FIGS. 1F-J) or Idelalisib (0-50 μM) (FIGS. 1K-O) in triplicate. Viability after 3 days was analyzed using the MTS assay. Briefly, 20 μl of MTS reagent was added to cells and incubated for 2 hours and, the absorbance at 490 nm was read using a Biotek plate reader. Relative absorbance is calculated after setting the average absorbance of the no-treatment control as 1. Absorbance at OD=490 nm increases proportionally to cell density.
(§2) Daudi, SUDHL-4, KPUM-UH1, Karpas 422, or TMD8 cells were treated simultaneously with a series of concentrations of 9-ING-41 (0 μM, 0.05 μM, 0.5 μM) and either Venetoclax (0 nM, 0.5 nM, 5 nM, 50 nM, 500 nM, 5000 nM), BAY-1143572 (0 μM, 0.005 μM, 0.05 μM, 0.5 μM, 5 μM, 50 μM), or Idelalisib (0 μM, 0.005 μM, 0.05 μM, 0.5 μM, 5 μM, 50 μM). Viability at day 3 using an MTS assay was determined as described above. The background absorbance was subtracted from the A490 of the samples and the A490 of the vehicle/no-treatment control was set to 1, and the relative A490s of the rest of the samples were calculated. The IC50 was calculated as the concentration of the drug at which A490 reached 0.5. Additive effects were calculated as a fold change in the IC50 of a novel agent when combined with 0.5 μM of 9-ING-41.

KPUMUH1 cell line = experiment: as above; format: cell-based; details: KPUMUH1, combined with 0.5 μM 9-ING-41, day 3 MTS
Method: as §1, §2

| Reduction in the IC50 value on combination with 9-ING-41 (SUDHL-4 cell line) [fold] | Structure (SMILES) | Reduction in the IC50 value on combination with 9-ING-41 (KPUMUH1 cell line) [fold] |
| --- | --- | --- |
| 8 | COc1cc(F)ccc1-c1ncnc(Nc2cccc(C[S@](C)(=N)=O)c2)n1 [BAY-1143572] |  |
| 8 | CC1(C)CCC(CN2CCN(c3ccc(C(=O)NS(=O)(=O)c4ccc(NCC5CCOCC5)c([N+](=O)[O-])c4)c(Oc4cnc5[nH]ccc5c4)c3)CC2)=C(c2ccc(Cl)cc2)C1 [Venetoclax] | 2 |

From patent publication US11980607B2, “Methods of treating malignant lymphoproliferative disorders” (Actuate Therapeutics Inc., priority 2018, dated 2024)
